Source: patent publication US20180002400A1, “SHORT PEPTIDE-BASED THERAPEUTIC AGENT AND MEDICINAL COMPOSITION INCLUDING THE SAME FOR INHIBITING ACTIVITIES OF CANCER CELLS” (NATIONAL CHENG KUNG UNIVERSITY, priority 2015, published 2018)

Experiments:
breast cancer MB231 cell [1] = experiment: Drug resistance (CDDP, 5-FU) induced by euPTX3, MTT assay; type: cell-based, human; settings: MB231; short peptide 10 μg/mL or 225 nM + euPTX3 2.5 μg/mL 1 week, then 40 μM CDDP or 100 μM 5-FU 48 hours; FIG. 1D
Description: (§1) The cell density 1×10^4 cells/well of the breast cancer MB231 cell, the lung cancer A549 cell and the nasopharyngeal cancer HONE1 cell were co-cultured with the short peptides RI37, GI40 and KT44 (10 μg/mL or 225 nM of the short peptide) and the polypeptide euPTX3 (2.5 μg/mL) of Example 1. After 1 week of cultivation, those cancer cells were added with 40 μM of CDDP or 100 μM of 5-FU respectively and cultured for 48 hours. Based on the cell viability of the cells only co-cultured with the polypeptide euPTX3 (2.5 μg/mL) as 100%, the influence of drug resistance of the cancer cells of Example 2 using the short peptides of Example 1 could be determined according to the aforementioned MTT assay.

lung cancer A549 cell = experiment: as above; type: cell-based, human; settings: A549; short peptide 10 μg/mL or 225 nM + euPTX3 2.5 μg/mL 1 week, then 40 μM CDDP or 100 μM 5-FU 48 hours; FIG. 2B
Description: as §1

[2] = system: nasopharyngeal cancer HONE1 cell; experiment: as above; type: cell-based, human; settings: HONE1; short peptide 10 μg/mL or 225 nM + euPTX3 2.5 μg/mL 1 week, then 40 μM CDDP or 100 μM 5-FU 48 hours; FIG. 3B
Description: as §1

breast cancer MB231 cell [3] = experiment: MTT cell viability (cell toxicity) of cancer cells co-cultured with short peptides; type: cell-based, human; settings: MB231 co-cultured with increasing amount of short peptide for 24 hours or 48 hours; FIG. 1B
Description: After the human breast cancer MB231 cell of Example 2 was co-cultured with the short peptides RI37, GI40 and KT44 of Example 1 for 24 hours or 48 hours, the cell toxicity was analyzed by using MTT [3-(4,5-dimethylthiazol-2-yl)-2,5-[…] tetrazolium bomide] (Sigma). The transparent and colorless tetrazolium salt of MTT was degraded by mitochondrial dehydrogenase in live cells and converted to blue formazan crystals. Based on the cell viability of the cell in the absence of the short peptides of Example 1 as 100%, the influence of the cancer cell proliferation could be determined by using the short peptides.

[4] = system: drug-resistant breast cancer MB231R (MBR) cells; experiment: Cancer cell invasion (matrigel-coated insert) induced by euPTX3; type: cell-based, human
[5] = system: drug-resistant MB231R breast cancer; experiment: Xenograft tumor model, CDDP-resistant MB231R cells in NOD-SCID mice; type: in vivo, mouse; settings: for drug resistance generated by the tumor: 50 μg short peptide intratumorally twice weekly combined with CDDP 5 mg/kg i.p. once weekly; for drug resistance generated by the tumor / tumor growth (tumor size): FIG. 4D; for tumor growth (tumor size): 50 μg short peptide intratumorally twice weekly; for tumor metastasis and growth (images of tumors of various organs, epi-fluorescence radiance efficiency): IVIS imaging; for tumor metastasis (number of metastatic nodules per lung) / tumor growth (tumor weight per lung): sacrificed after ten weeks; for tumor metastasis (number of metastatic nodules per lung): FIG. 4E left panel; for tumor growth (tumor weight per lung): FIG. 4E right panel
Description: Besides, 1×10^6 mCherry fluorescent protein-labeled CDDP-resistant human MDA-MB-231 cells (MB231R; ATCC CRL-2539) were inoculated subcutaneously to the rear side of the back of six to eight-week-old female NOD-SCID immunodeficiency mice (purchased from Laboratory Animal Center of National Cheng Kung University). After 1 week of inoculation, the mice were intraperitoneally injected with 5 mg/kg of CDDP [dissolved in 1% (w/v) DMSO] or only 1% (w/v) of DMSO once weekly, and intratumorally uninjected or injected with 50 μg of the short peptides RI37, GI40 and KT44 of Example 1 twice weekly. The mice were sacrificed after ten weeks of inoculation. Spleen, kidneys, lungs and liver were obtained, tumor weight of those organs were measured according to 3 replications per group, and the metastatic activity and the number of metastatic nodules per organ were confirmed by IVIS Spectrum Imaging System. The tumor size was measured by a commercial external caliper, and the tumor volume (V) was calculated by the following formula (I). Each condition of the experiment was repeated at least thrice.

[6] = MB231R (MBR), identical molecular number: euPTX3 2.5 μg/mL, RI37 3.7 μg/mL, GI40 4 μg/mL, pPTX3/C 10 μg/mL, FIG. 5B right panel
[7] = breast cancer cells, short peptide 10 μg/mL + euPTX3 2.5 μg/mL, FIG. 1E right panel

| Substance | drug resistance induced by the polypeptide euPTX3 (cell viability) (breast cancer MB231 cell [1]) | drug resistance induced by the polypeptide euPTX3 (cell viability) (lung cancer A549 cell) | drug resistance induced by the polypeptide euPTX3 (cell viability) [2] | cell viability (breast cancer MB231 cell [3]) | invasive cell numbers induced by the polypeptide euPTX3 [4, 6] | invasive cell numbers induced by the polypeptide euPTX3 [4, 7] | drug resistance generated by the tumor [5] | tumor growth (tumor size) [5] | tumor metastasis and growth (images of tumors of various organs, epi-fluorescence radiance efficiency) ([5]; FIG. 4F) | tumor metastasis (number of metastatic nodules per lung) [5] | tumor growth (tumor weight per lung) [5] | metastatic nodules in organs (imaging) ([5]; FIG. 4F) |
| --- | --- | --- | --- | --- | --- | --- | --- | --- | --- | --- | --- | --- |
| GI40: artificially synthetic short peptide having the amino acid sequence listed as SEQ ID NO:2, designed from human PTX3 (NP_002843.2) (GGGFDETLAFSGRLTGFNIWDSVLSNEEIRETGGAESCHI; The 320th amino acid to 359th amino acid of Human sapiens PTX3 (GI40)) | could effectively inhibit the drug resistance | could effectively inhibit the drug resistance | could effectively inhibit the drug resistance | no significant influence on the cell viability | could effectively inhibit the invasive cell numbers | could effectively inhibit the invasive cell numbers | reduce the drug resistance | could inhibit tumor growth | could inhibit tumor metastasis and growth | could inhibit tumor metastasis | could inhibit tumor metastasis and growth | – |
| KT44: artificially synthetic peptide having the amino acid sequence listed as SEQ ID NO:3 (KLVAEAMVSLGRWTHLCGTWNSEEGLTSLWVNGELAATTVEMAT; The 255th amino acid to 298th amino acid of Human sapiens PTX3 (KT44)) | could not significantly inhibit the drug resistance | could not significantly inhibit the drug resistance | could not significantly inhibit the drug resistance | no significant influence on the cell viability | – | could not inhibit the invasive cell numbers | – | could not significantly inhibit the tumor growth | could not significantly inhibit tumor metastasis and growth | could not significantly inhibit tumor metastasis | could not significantly inhibit tumor metastasis and growth | metastatic nodules was found in lungs |
| RI37: artificially synthetic short peptide having the amino acid sequence listed as SEQ ID NO:1, designed from human PTX3 (NP_002843.2) (RPMRLESFSACIWVKATDVLNKTILFSYGTKRNPYEI; The 200th amino acid to 236th amino acid of Human sapiens PTX3 (RI37)) | could effectively inhibit the drug resistance | could effectively inhibit the drug resistance | could effectively inhibit the drug resistance | no significant influence on the cell viability | could effectively inhibit the invasive cell numbers | could effectively inhibit the invasive cell numbers | reduce the drug resistance | could inhibit tumor growth | could inhibit tumor metastasis and growth | could inhibit tumor metastasis | could inhibit tumor metastasis and growth | – |
